Laboratory results published in the supplement of paper PMC4862054.

System: CAL-51
Details: 72 h
Procedure, shortened: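 For viability, cells received 2.5 µl CellTiter-Blue for 2 h at 37 °C and fluorescence was read at 560/590 nm. Before this, breast cancer cell lines in 20 µl suspension had been incubated for 72 h on 384-well plates pre-loaded with compound dissolved in 5 µl medium. EC50 was obtained from a percent-inhibition dose-response fit censored at the highest concentration, after normalisation of each plate to vehicle and a positive kill control; rows with a zero drug sensitivity score were discarded.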

Row | SMILES | EC50, CellTiter-Blue viability
1 | COc1cc(Nc2ncc3c(n2)-c2ccc(Cl)cc2C(c2c(F)cccc2OC)=NC3)ccc1C(=O)O [MLN8237] | 111 nM
2 | S=c1[nH]cnc2nc[nH]c12 [Mercaptopurine] | 3810 nM
3 | COc1cccc2cc(-c3nc([C@H]4CC[C@H](C(=O)O)CC4)n4ncnc(N)c34)[nH]c12 [OSI-027] | 1580 nM
4 | C=CCNC1=C2C[C@@H](C)C[C@H](OC)[C@H](O)[C@@H](C)/C=C(\C)[C@H](OC(N)=O)[C@@H](OC)/C=C\C=C(/C)C(=O)NC(=CC1=O)C2=O [Tanespimycin] | 269 nM
5 | CO[C@H]1C[C@@H]2CC[C@@H](C)[C@@](O)(O2)C(=O)C(=O)N2CCCC[C@H]2C(=O)O[C@H]([C@H](C)C[C@@H]2CC[C@@H](OC(=O)C(C)(CO)CO)[C@H](OC)C2)CC(=O)[C@H](C)/C=C(\C)[C@@H](O)[C@@H](OC)C(=O)[C@H](C)C[C@H](C)/C=C/C=C/C=C/1C [Temsirolimus] | 1.36 nM
6 | CC[C@]1(O)C[C@@H]2CN(CCc3c([nH]c4ccccc34)[C@@](C(=O)OC)(c3cc4c(cc3OC)N(C)[C@H]3[C@@](O)(C(=O)OC)[C@H](OC(C)=O)[C@]5(CC)C=CCN6CC[C@]43[C@@H]65)C2)C1 [Vinblastine] | 26.5 nM
